ChEMBL document CHEMBL6121044, “Discovery of Novel Spirocyclic MAT2A Inhibitors Demonstrating High In Vivo Efficacy in MTAP-Null Xenograft Models” (J Med Chem, 2025)

Key:
[1] = biological target: S-adenosylmethionine synthase isoform type-2 (Homo sapiens, UniProt P31153); assay: Inhibition of MAT2A (unknown origin) assessed as release of inorganic phosphate using ATP/L-methionine pre-incubated for 30 mins followed by substrate addition measured after 2.5 hrs by colorimetric assay
HCT-116 [2] = assay: Antiproliferative activity against MTAP-knock out human HCT-116 cells assessed as proliferation inhibition rate measured after 5 days by CTG assay; type: functional, cell-based; conditions: HCT-116, 120 h
HCT-116 [3] = assay: Antiproliferative activity against MTAP-knock out human HCT-116 cells assessed as maximal inhibition rate at 10 uM measured after 5 days by CTG assay relative to control; type: functional; conditions: time 5 day
[4] = Microsomal metabolic stability in human liver microsomes assessed as clearance; type: ADME, Microsome; conditions: read-out: CLH
[5] = Microsomal metabolic stability in mouse liver microsomes assessed as clearance; type: ADME, Microsome; conditions: read-out: CLH
[6] = Clearance in male ICR mouse at 10 mg/kg, po and 2 mg/kg, iv measured upto 24 hrs; type: ADME, organism-based; conditions: in vivo
[7] = Volume of distribution at steady state in male ICR mouse at 10 mg/kg, po and 2 mg/kg, iv measured upto 24 hrs; type: ADME, organism-based; conditions: in vivo
[8] = Half life in male ICR mouse at 10 mg/kg, po and 2 mg/kg, iv measured upto 24 hrs; type: ADME, organism-based; conditions: in vivo
[9] = AUC (0 to infinity) in male ICR mouse at 10 mg/kg, po and 2 mg/kg, iv measured upto 24 hrs; type: ADME, organism-based; conditions: in vivo
[10] = Lipophilicity, log D of compound at pH 7.4 byHPLC method; type: physicochemical; conditions: buffer

Chain of S-adenosylmethionine synthase isoform type-2 (P31153 whole entry, canonical isoform): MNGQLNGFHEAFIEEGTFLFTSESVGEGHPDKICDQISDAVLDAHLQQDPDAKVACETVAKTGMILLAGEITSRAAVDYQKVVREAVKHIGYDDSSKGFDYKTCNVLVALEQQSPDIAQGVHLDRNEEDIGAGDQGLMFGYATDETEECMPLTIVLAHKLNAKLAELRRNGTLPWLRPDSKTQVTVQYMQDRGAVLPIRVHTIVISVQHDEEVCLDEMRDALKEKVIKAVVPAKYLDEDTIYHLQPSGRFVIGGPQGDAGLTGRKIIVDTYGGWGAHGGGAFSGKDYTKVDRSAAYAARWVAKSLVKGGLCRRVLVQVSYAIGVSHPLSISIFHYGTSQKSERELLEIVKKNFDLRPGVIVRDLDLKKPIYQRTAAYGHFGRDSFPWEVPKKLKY

Compound	IC50 [1] [nM]	IC50 (HCT-116 [2]) [nM]	Imax (HCT-116 [3]) [%]	CLint scaled [4] [mL/min/kg]	CLint scaled [5] [mL/min/kg]	clearance [6] [mL/min/kg]	Vdss [7] [L/kg]	half-life [8] [h]	AUC(0-inf) [9] [ng·h/mL]	logD [10]
CNC1=NC(=O)C2(CCc3ccc(F)cc32)c2nc(C(F)(F)F)ccc21 (stereo not drawn)	55	23300	52.53							
CNC1=NC(=O)C2(CCc3c(C#N)cccc32)c2nc(C(F)(F)F)ccc21 (stereo not drawn)	18	1100	76.16	< 9.3	48.2					
[2H]C([2H])([2H])NC1=NC(=O)[C@]2(CCc3ncccc32)c2cc(C3CC3)ccc21	4	55	78.6	11.2	63	13.1	1.26	1.47	22000	1.92
CNC1=NC(=O)C2(CCc3ccccc32)c2nc(C(F)(F)F)ccc21 (stereo not drawn)	7	17	77.71	< 9.3	59	29.3	3.665	2.05	6020	
CNC1=NC(=O)C2(CCc3ncccc32)c2cc(C(F)(F)C(F)(F)F)ccc21 (stereo not drawn)	6	405	66.34							2.55
[2H]C([2H])([2H])NC1=NC(=O)[C@]2(CCc3ncccc32)c2cc(C(C)(F)F)c(F)cc21	4	70	85.98	< 9.3	< 29.3	11.2	1.15	1.58	14200	1.87
CNC1=NC(=O)C2(CCc3ncccc32)c2nc(C(F)(F)F)ccc21 (stereo not drawn)	9	149	87.63	< 9.3	67	9.06	2.42	3.35	18600	
CNC1=NC(=O)C2(CCc3ncccc32)c2cc(C3CC3)ccc21 (stereo not drawn)	6	66	97.11	12.3	85.7					1.92
CNC1=NC(=O)C2(CCc3c(F)cccc32)c2nc(C(F)(F)F)ccc21 (stereo not drawn)	11	105	86.45	13.4	118					
O=C1N=C(NC2CC2)c2ccc(C(F)(F)F)cc2C12CCc1ncccc12 (racemic)	4	146	71.61							2.77
[2H]C([2H])([2H])NC1=NC(=O)C2(CCc3ncccc32)c2cc(C(F)(F)F)ccc21 (racemic)	8	115	92	< 9.3	42.5	5.13	1.39	3.64	56700	1.82
O=C1N=C(NC2CC(F)(F)C2)c2ccc(C(F)(F)F)cc2C12CCc1ncccc12 (racemic)	5	283	77.73							2.88
COc1cc(NC2=NC(=O)C3(CCc4ncccc43)c3cc(C(F)(F)F)ccc32)ccn1 (racemic)	12	180	56.22							3.29
O=C1N=C(NCC(F)(F)F)c2ccc(C(F)(F)F)cc2C12CCc1ncccc12 (racemic)	10	263	101.9	< 9.3	< 29.3					2.73
O=C1N=C(NC2COC2)c2ccc(C(F)(F)F)cc2C12CCc1ncccc12 (racemic)	> 3000									1.57
CN(C)C1=NC(=O)C2(CCc3ncccc32)c2cc(C(F)(F)F)ccc21 (racemic)	19	119	79.25							2.24
NC1=NC(=O)C2(CCc3ncccc32)c2cc(C(F)(F)F)ccc21 (racemic)	4	100	75.59	< 9.6	< 9.6	8.48	1.68	1.92	20400	1.76
CNC1=NC(=O)C2(CCc3ncccc32)c2cc(C(F)(F)F)ccc21 (racemic)	11	97	93.27	< 9.3	51.2	6.77	2.2	3.53	35200	1.83
CNc1nc(=O)n(-c2ccccc2Cl)c2nc(C(F)(F)F)ccc12 (single isomer, unassigned; atropisomer 1)	3									
CNc1nc(=O)n(-c2ccccc2Cl)c2nc(C(F)(F)F)ccc12 (single isomer, unassigned; atropisomer 2)	86									
Nc1nc(=O)n(-c2ccccc2Cl)c2nc(C(F)(F)F)ccc12 (single isomer, unassigned; atropisomer A)	3									
